# Test results: publication PMC5909127, “Optimization of a “bump-and-hole” approach to allele-selective BET bromodomain inhibition” (Chemical Science, 2018)
# Biological target: BRD3 BD1 L/V (Homo sapiens, UniProt Q15059, L70V)
# Assay: competitive AlphaLISA
# Assay type: binding
# Conditions: not given
# Sequence of BRD3 BD1 L/V (Q15059 24-144 L70V limits assumed): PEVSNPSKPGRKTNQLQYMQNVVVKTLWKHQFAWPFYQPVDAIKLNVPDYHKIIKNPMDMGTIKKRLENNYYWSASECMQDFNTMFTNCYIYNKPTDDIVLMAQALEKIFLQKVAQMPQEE
row,Structure (SMILES),IC50 [µM]
1,CC[C@@H](C(=O)OC(C)(C)C)[C@@H]1N=C(c2ccc(Cl)cc2)c2cc(OC)ccc2-n2c(C)nnc21 [Compound 23],0.398
2,CCC[C@@H](C(=O)OC)[C@@H]1N=C(c2ccc(Cl)cc2)c2cc(OC)ccc2-n2c(C)nnc21 (relative stereo) [Compound 6],6.31
3,C=CC[C@@H](C(=O)OC(C)(C)C)[C@@H]1N=C(c2ccc(Cl)cc2)c2ccc(OC)cc2-n2c(C)nnc21 [Compound 26],1.26

# Biological target: BRDT BD2 WT (Homo sapiens, UniProt Q58F21)
# Assay: competitive AlphaLISA
# Assay type: binding
# Conditions: not given
row,Structure (SMILES),IC50 [µM]
1,CC[C@@H](C(=O)OC(C)(C)C)[C@@H]1N=C(c2ccc(Cl)cc2)c2cc(OC)ccc2-n2c(C)nnc21 [Compound 23],6.31
2,C=CC[C@@H](C(=O)OC(C)(C)C)[C@@H]1N=C(c2ccc(Cl)cc2)c2ccc(OC)cc2-n2c(C)nnc21 [Compound 26],10

# Biological target: BRD2 BD2 L/V (Homo sapiens, UniProt P25440, L383V)
# Assay: competitive AlphaLISA
# Assay type: binding
# Conditions: not given
# Sequence of BRD2 BD2 L/V (P25440 344-455 L383V): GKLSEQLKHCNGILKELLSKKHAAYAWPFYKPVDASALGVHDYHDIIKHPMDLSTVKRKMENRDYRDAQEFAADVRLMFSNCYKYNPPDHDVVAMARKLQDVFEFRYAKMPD
row,Structure (SMILES),IC50 [µM]
1,CC[C@@H](C(=O)OC(C)(C)C)[C@@H]1N=C(c2ccc(Cl)cc2)c2cc(OC)ccc2-n2c(C)nnc21 [Compound 23],1
2,CCC[C@@H](C(=O)OC)[C@@H]1N=C(c2ccc(Cl)cc2)c2cc(OC)ccc2-n2c(C)nnc21 (relative stereo) [Compound 6],10
3,C=CC[C@@H](C(=O)OC(C)(C)C)[C@@H]1N=C(c2ccc(Cl)cc2)c2ccc(OC)cc2-n2c(C)nnc21 [Compound 26],1.58

# Biological target: BRD3 BD2 WT (Homo sapiens, UniProt Q15059)
# Assay: competitive AlphaLISA
# Assay type: binding
# Conditions: not given
# Sequence of BRD3 BD2 WT (Q15059 306-416): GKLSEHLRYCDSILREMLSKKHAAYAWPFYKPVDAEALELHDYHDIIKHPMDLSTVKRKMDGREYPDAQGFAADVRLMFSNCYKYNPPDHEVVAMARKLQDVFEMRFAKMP
row,Structure (SMILES),IC50 [µM]
1,CC[C@@H](C(=O)OC(C)(C)C)[C@@H]1N=C(c2ccc(Cl)cc2)c2cc(OC)ccc2-n2c(C)nnc21 [Compound 23],5.01
2,CCC[C@@H](C(=O)OC)[C@@H]1N=C(c2ccc(Cl)cc2)c2cc(OC)ccc2-n2c(C)nnc21 (relative stereo) [Compound 6],20
3,C=CC[C@@H](C(=O)OC(C)(C)C)[C@@H]1N=C(c2ccc(Cl)cc2)c2ccc(OC)cc2-n2c(C)nnc21 [Compound 26],5.01

# Tested on: L/V BET bromodomains (BD1 and BD2 of BRD2, BRD3 and BRD4)
# Assay: competitive AlphaLISA (Bio-JQ1 displacement)
# Assay type: binding, human
# Conditions: not given
row,Structure (SMILES),"selectivity (L/V over WT, AlphaLISA)"
1,CCC[C@@H](C(=O)OC)[C@@H]1N=C(c2ccc(Cl)cc2)c2cc(OC)ccc2-n2c(C)nnc21 (relative stereo) [Compound 6],less than 10 fold

# Same assay, conditions: L/V minus WT
row,Structure (SMILES),AlphaLISA pIC50 ± SD Δ
1,CC[C@@H](C(=O)OC(C)(C)C)[C@@H]1N=C(c2ccc(Cl)cc2)c2cc(OC)ccc2-n2c(C)nnc21 [Compound 23],0.7 ± 0.1
2,CCC[C@@H](C(=O)OC)[C@@H]1N=C(c2ccc(Cl)cc2)c2cc(OC)ccc2-n2c(C)nnc21 (relative stereo) [Compound 6],0.6 ± 0.2
3,C=CC[C@@H](C(=O)OC(C)(C)C)[C@@H]1N=C(c2ccc(Cl)cc2)c2ccc(OC)cc2-n2c(C)nnc21 [Compound 26],0.5 ± 0.1

# Same assay, conditions: mean and SD of all somatic bromodomains; active enantiomer concentration
row,Structure (SMILES),AlphaLISA pIC50 ± SD L/V
1,CC[C@@H](C(=O)OC(C)(C)C)[C@@H]1N=C(c2ccc(Cl)cc2)c2cc(OC)ccc2-n2c(C)nnc21 [Compound 23],6.0 ± 0.2
2,CCC[C@@H](C(=O)OC)[C@@H]1N=C(c2ccc(Cl)cc2)c2cc(OC)ccc2-n2c(C)nnc21 (relative stereo) [Compound 6],5.0 ± 0.1
3,C=CC[C@@H](C(=O)OC(C)(C)C)[C@@H]1N=C(c2ccc(Cl)cc2)c2ccc(OC)cc2-n2c(C)nnc21 [Compound 26],5.8 ± 0.2

# Biological target: BRDT BD1 WT (Homo sapiens, UniProt Q58F21)
# Assay: competitive AlphaLISA
# Assay type: binding
# Conditions: not given
row,Structure (SMILES),IC50 [µM]
1,CC[C@@H](C(=O)OC(C)(C)C)[C@@H]1N=C(c2ccc(Cl)cc2)c2cc(OC)ccc2-n2c(C)nnc21 [Compound 23],6.31
2,CCC[C@@H](C(=O)OC)[C@@H]1N=C(c2ccc(Cl)cc2)c2cc(OC)ccc2-n2c(C)nnc21 (relative stereo) [Compound 6],31.6
3,C=CC[C@@H](C(=O)OC(C)(C)C)[C@@H]1N=C(c2ccc(Cl)cc2)c2ccc(OC)cc2-n2c(C)nnc21 [Compound 26],10

# Biological target: BRD4 BD1 WT (Homo sapiens, UniProt O60885)
# Assay: competitive AlphaLISA
# Assay type: binding
# Conditions: AlphaLISA pIC50 Value BRD4 BD1 WT
row,Structure (SMILES),IC50 [µM]
1,CC[C@@H](C(=O)OC(C)(C)C)[C@@H]1N=C(c2ccc(Cl)cc2)c2cc(OC)ccc2-n2c(C)nnc21 [Compound 23],5.01
2,CCC[C@@H](C(=O)OC)[C@@H]1N=C(c2ccc(Cl)cc2)c2cc(OC)ccc2-n2c(C)nnc21 (relative stereo) [Compound 6],25.1
3,C=CC[C@@H](C(=O)OC(C)(C)C)[C@@H]1N=C(c2ccc(Cl)cc2)c2ccc(OC)cc2-n2c(C)nnc21 [Compound 26],6.31

# Biological target: BRDT BD1 L/V (Homo sapiens, UniProt Q58F21, L63V)
# Assay: competitive AlphaLISA
# Assay type: binding
# Conditions: not given
row,Structure (SMILES),IC50 [µM]
1,CC[C@@H](C(=O)OC(C)(C)C)[C@@H]1N=C(c2ccc(Cl)cc2)c2cc(OC)ccc2-n2c(C)nnc21 [Compound 23],2.51
2,CCC[C@@H](C(=O)OC)[C@@H]1N=C(c2ccc(Cl)cc2)c2cc(OC)ccc2-n2c(C)nnc21 (relative stereo) [Compound 6],25.1
3,C=CC[C@@H](C(=O)OC(C)(C)C)[C@@H]1N=C(c2ccc(Cl)cc2)c2ccc(OC)cc2-n2c(C)nnc21 [Compound 26],3.98

# Biological target: BRD4 BD2 WT (Homo sapiens, UniProt O60885)
# Assay: competitive AlphaLISA
# Assay type: binding
# Conditions: not given
row,Structure (SMILES),IC50 [µM]
1,CC[C@@H](C(=O)OC(C)(C)C)[C@@H]1N=C(c2ccc(Cl)cc2)c2cc(OC)ccc2-n2c(C)nnc21 [Compound 23],6.31
2,CCC[C@@H](C(=O)OC)[C@@H]1N=C(c2ccc(Cl)cc2)c2cc(OC)ccc2-n2c(C)nnc21 (relative stereo) [Compound 6],63.1
3,C=CC[C@@H](C(=O)OC(C)(C)C)[C@@H]1N=C(c2ccc(Cl)cc2)c2ccc(OC)cc2-n2c(C)nnc21 [Compound 26],10

# Tested on: not listed separately
# Assay: Intrinsic Clearance
# Conditions: mouse liver microsomes
row,Structure (SMILES),CL int [ml min^–1 g^–1]
1,CC[C@@H](C(=O)OC(C)(C)C)[C@@H]1N=C(c2ccc(Cl)cc2)c2cc(OC)ccc2-n2c(C)nnc21 [Compound 23],30.7
2,CCC[C@@H](C(=O)OC)[C@@H]1N=C(c2ccc(Cl)cc2)c2cc(OC)ccc2-n2c(C)nnc21 (relative stereo) [Compound 6],5.2
3,C=CC[C@@H](C(=O)OC(C)(C)C)[C@@H]1N=C(c2ccc(Cl)cc2)c2ccc(OC)cc2-n2c(C)nnc21 [Compound 26],39.4

# Biological target: WT BET bromodomains (BD1 and BD2 of BRD2, BRD3 and BRD4)
# Assay: competitive AlphaLISA (Bio-JQ1 displacement)
# Assay type: binding, human
# Conditions: mean and SD of all somatic bromodomains; active enantiomer concentration
row,Structure (SMILES),AlphaLISA pIC50 ± SD WT
1,CC[C@@H](C(=O)OC(C)(C)C)[C@@H]1N=C(c2ccc(Cl)cc2)c2cc(OC)ccc2-n2c(C)nnc21 [Compound 23],5.3 ± 0.1
2,CCC[C@@H](C(=O)OC)[C@@H]1N=C(c2ccc(Cl)cc2)c2cc(OC)ccc2-n2c(C)nnc21 (relative stereo) [Compound 6],4.5 ± 0.2
3,C=CC[C@@H](C(=O)OC(C)(C)C)[C@@H]1N=C(c2ccc(Cl)cc2)c2ccc(OC)cc2-n2c(C)nnc21 [Compound 26],5.2 ± 0.2

# Biological target: BRD4 BD2 L/V (Homo sapiens, UniProt O60885, L387V)
# Assay: competitive AlphaLISA
# Assay type: binding
# Conditions: not given
row,Structure (SMILES),IC50 [µM]
1,CC[C@@H](C(=O)OC(C)(C)C)[C@@H]1N=C(c2ccc(Cl)cc2)c2cc(OC)ccc2-n2c(C)nnc21 [Compound 23],1.58
2,C=CC[C@@H](C(=O)OC(C)(C)C)[C@@H]1N=C(c2ccc(Cl)cc2)c2ccc(OC)cc2-n2c(C)nnc21 [Compound 26],3.16

# Biological target: BRD4 BD1 L/V (Homo sapiens, UniProt O60885, L94V)
# Assay: competitive AlphaLISA
# Assay type: binding
# Conditions: AlphaLISA pIC50 Value BRD4 BD1 L/V
row,Structure (SMILES),IC50 [µM]
1,CC[C@@H](C(=O)OC(C)(C)C)[C@@H]1N=C(c2ccc(Cl)cc2)c2cc(OC)ccc2-n2c(C)nnc21 [Compound 23],0.794
2,CCC[C@@H](C(=O)OC)[C@@H]1N=C(c2ccc(Cl)cc2)c2cc(OC)ccc2-n2c(C)nnc21 (relative stereo) [Compound 6],7.94
3,C=CC[C@@H](C(=O)OC(C)(C)C)[C@@H]1N=C(c2ccc(Cl)cc2)c2ccc(OC)cc2-n2c(C)nnc21 [Compound 26],1.58

# Biological target: BRD2 BD1 L/V (Homo sapiens, UniProt P25440, L110V)
# Assay: competitive AlphaLISA
# Assay type: binding
# Conditions: not given
# Sequence of BRD2 BD1 L/V (P25440 71-176 L110V limits assumed): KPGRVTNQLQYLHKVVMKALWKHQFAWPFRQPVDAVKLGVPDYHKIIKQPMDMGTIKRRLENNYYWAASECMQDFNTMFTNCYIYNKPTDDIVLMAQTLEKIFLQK
row,Structure (SMILES),IC50 [µM]
1,CC[C@@H](C(=O)OC(C)(C)C)[C@@H]1N=C(c2ccc(Cl)cc2)c2cc(OC)ccc2-n2c(C)nnc21 [Compound 23],1.58
2,CCC[C@@H](C(=O)OC)[C@@H]1N=C(c2ccc(Cl)cc2)c2cc(OC)ccc2-n2c(C)nnc21 (relative stereo) [Compound 6],10
3,C=CC[C@@H](C(=O)OC(C)(C)C)[C@@H]1N=C(c2ccc(Cl)cc2)c2ccc(OC)cc2-n2c(C)nnc21 [Compound 26],2.51

# Biological target: BRD3 BD2 L/V (Homo sapiens, UniProt Q15059, L345V)
# Assay: competitive AlphaLISA
# Assay type: binding
# Conditions: not given
# Sequence of BRD3 BD2 L/V (Q15059 306-416 L345V limits assumed): as the sequence (Q15059 306-416) above, with L40V counted along it
row,Structure (SMILES),IC50 [µM]
1,CC[C@@H](C(=O)OC(C)(C)C)[C@@H]1N=C(c2ccc(Cl)cc2)c2cc(OC)ccc2-n2c(C)nnc21 [Compound 23],0.794
2,CCC[C@@H](C(=O)OC)[C@@H]1N=C(c2ccc(Cl)cc2)c2cc(OC)ccc2-n2c(C)nnc21 (relative stereo) [Compound 6],10
3,C=CC[C@@H](C(=O)OC(C)(C)C)[C@@H]1N=C(c2ccc(Cl)cc2)c2ccc(OC)cc2-n2c(C)nnc21 [Compound 26],1.26

# Biological target: BRD2 BD2 WT (Homo sapiens, UniProt P25440)
# Assay: competitive AlphaLISA
# Assay type: binding
# Conditions: not given
# Sequence of BRD2 BD2 WT (P25440 344-455): as the sequence (P25440 344-455 L383V) above, with V40L counted along it
row,Structure (SMILES),IC50 [µM]
1,CC[C@@H](C(=O)OC(C)(C)C)[C@@H]1N=C(c2ccc(Cl)cc2)c2cc(OC)ccc2-n2c(C)nnc21 [Compound 23],5.01
2,CCC[C@@H](C(=O)OC)[C@@H]1N=C(c2ccc(Cl)cc2)c2cc(OC)ccc2-n2c(C)nnc21 (relative stereo) [Compound 6],> 100
3,C=CC[C@@H](C(=O)OC(C)(C)C)[C@@H]1N=C(c2ccc(Cl)cc2)c2ccc(OC)cc2-n2c(C)nnc21 [Compound 26],6.31

# Tested on: not listed separately
# Assay: Plasma Half-life
# Conditions: BALB/c, mouse, pH 7.4
row,Structure (SMILES),half-life at 50 µM [h]
1,CC[C@@H](C(=O)OC(C)(C)C)[C@@H]1N=C(c2ccc(Cl)cc2)c2cc(OC)ccc2-n2c(C)nnc21 [Compound 23],> 3
2,CCC[C@@H](C(=O)OC)[C@@H]1N=C(c2ccc(Cl)cc2)c2cc(OC)ccc2-n2c(C)nnc21 (relative stereo) [Compound 6],> 3
3,C=CC[C@@H](C(=O)OC(C)(C)C)[C@@H]1N=C(c2ccc(Cl)cc2)c2ccc(OC)cc2-n2c(C)nnc21 [Compound 26],> 3

# Biological target: BRDT BD2 L/V (Homo sapiens, UniProt Q58F21, L306V)
# Assay: competitive AlphaLISA
# Assay type: binding
# Conditions: not given
row,Structure (SMILES),IC50 [µM]
1,CC[C@@H](C(=O)OC(C)(C)C)[C@@H]1N=C(c2ccc(Cl)cc2)c2cc(OC)ccc2-n2c(C)nnc21 [Compound 23],2.51
2,C=CC[C@@H](C(=O)OC(C)(C)C)[C@@H]1N=C(c2ccc(Cl)cc2)c2ccc(OC)cc2-n2c(C)nnc21 [Compound 26],2.51

# Biological target: BRD2 BD1 WT (Homo sapiens, UniProt P25440)
# Assay: competitive AlphaLISA
# Assay type: binding
# Conditions: not given
# Sequence of BRD2 BD1 WT (P25440 71-176): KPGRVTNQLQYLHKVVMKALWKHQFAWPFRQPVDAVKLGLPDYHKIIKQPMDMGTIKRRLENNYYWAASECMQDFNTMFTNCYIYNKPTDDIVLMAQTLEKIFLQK
row,Structure (SMILES),IC50 [µM]
1,CC[C@@H](C(=O)OC(C)(C)C)[C@@H]1N=C(c2ccc(Cl)cc2)c2cc(OC)ccc2-n2c(C)nnc21 [Compound 23],5.01
2,CCC[C@@H](C(=O)OC)[C@@H]1N=C(c2ccc(Cl)cc2)c2cc(OC)ccc2-n2c(C)nnc21 (relative stereo) [Compound 6],31.6
3,C=CC[C@@H](C(=O)OC(C)(C)C)[C@@H]1N=C(c2ccc(Cl)cc2)c2ccc(OC)cc2-n2c(C)nnc21 [Compound 26],7.94

# Biological target: BRD3 BD1 WT (Homo sapiens, UniProt Q15059)
# Assay: competitive AlphaLISA
# Assay type: binding
# Conditions: not given
# Sequence of BRD3 BD1 WT (Q15059 24-144): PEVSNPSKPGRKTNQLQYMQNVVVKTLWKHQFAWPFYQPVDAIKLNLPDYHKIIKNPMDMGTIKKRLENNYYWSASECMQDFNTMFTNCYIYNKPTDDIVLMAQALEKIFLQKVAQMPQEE
row,Structure (SMILES),IC50 [µM]
1,CC[C@@H](C(=O)OC(C)(C)C)[C@@H]1N=C(c2ccc(Cl)cc2)c2cc(OC)ccc2-n2c(C)nnc21 [Compound 23],2.51
2,CCC[C@@H](C(=O)OC)[C@@H]1N=C(c2ccc(Cl)cc2)c2cc(OC)ccc2-n2c(C)nnc21 (relative stereo) [Compound 6],20
3,C=CC[C@@H](C(=O)OC(C)(C)C)[C@@H]1N=C(c2ccc(Cl)cc2)c2ccc(OC)cc2-n2c(C)nnc21 [Compound 26],3.16
